Assay results reported in article PMC7923628 (Proceedings of the National Academy of Sciences of the …, 2021).
Values belong to the compound of their own block, whether it stands above or below them.

Assays:
[1] = molecular target: E3 ROC1–CUL1 CTD (Homo sapiens, UniProt Q13616); experiment: FRET K48 di-Ub synthesis with ROC1–CUL1 CTD; type: biochemical; details: for blocking ubiquitination (in words): Table S2
[2] = molecular target: E3 ROC1–CUL1 CTD complex (Homo sapiens, UniProt Q13616); experiment: MST ligand binding to ROC1–CUL1 CTD; details: Table S2
E3 ROC1–CUL1 CTD complex, sequence (Q13616 411-776): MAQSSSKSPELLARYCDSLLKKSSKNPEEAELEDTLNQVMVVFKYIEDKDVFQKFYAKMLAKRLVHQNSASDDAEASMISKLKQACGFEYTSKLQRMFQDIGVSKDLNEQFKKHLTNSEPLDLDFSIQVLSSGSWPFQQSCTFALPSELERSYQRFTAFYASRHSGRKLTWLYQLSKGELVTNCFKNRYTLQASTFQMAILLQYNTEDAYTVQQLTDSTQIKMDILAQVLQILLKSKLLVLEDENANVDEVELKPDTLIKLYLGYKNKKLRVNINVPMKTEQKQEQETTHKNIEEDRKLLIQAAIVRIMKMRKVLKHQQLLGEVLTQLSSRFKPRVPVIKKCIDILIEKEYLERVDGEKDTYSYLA
E3 ROC1–CUL1 CTD complex, sequence (P62877 whole entry partner): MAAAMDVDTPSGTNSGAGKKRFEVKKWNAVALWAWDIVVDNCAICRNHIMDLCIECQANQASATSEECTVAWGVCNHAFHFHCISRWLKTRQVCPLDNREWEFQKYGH

[3] = system: p27; experiment: Immunoblot of CRL1/SCF^Skp2 substrate p27 in MV4-11 cells; type: cell-based, human
[4] = system: MV4-11 tumors; experiment: AML MV4-11 subcutaneous xenograft in mice; type: in vivo, mouse; details: G5, 3 mg/kg, oral, QD

E3 ROC1–CUL1 CTD, sequence (Q13616 411-776): as the sequence (Q13616 411-776) above
E3 ROC1–CUL1 CTD, sequence (P62877 whole entry partner): as the sequence (P62877 whole entry partner) above

SMILES: COc1ccc2c(=O)c(Oc3ccccc3)c(C)oc2c1OC [33-3, 7,8-dimethoxy-2-methyl-3-phenoxy-4H-chromen-4-one]
- E3 binding (in words) [2]: completely inactive
- blocking ubiquitination (in words) [1]: completely inactive

SMILES: NS(=O)(=O)OC[C@@H]1C[C@@H](n2ccc3c(N[C@H]4CCc5ccccc54)ncnc32)C[C@@H]1O [MLN4924]
- effect on p27 level [3]: stabilized

SMILES: CNC(=O)c1cc(Oc2ccc(NC(=O)Nc3ccc(Cl)c(C(F)(F)F)c3)cc2)ccn1 [sorafenib]
- tumor inhibition [4]: 46.02%

Now from value to compound:

- drop in IC50 ([1]; compared with 33): sevenfold
SMILES: Cc1oc2c(O)c(O)ccc2c(=O)c1Oc1ccccc1 [33-2, 7,8-dihydroxy-2-methyl-3-phenoxy-4H-chromen-4-one]

- blocking ubiquitination (in words) [1]: inactive
SMILES: O=c1c(Oc2ccccc2)c(C(F)(F)F)oc2cc(O)ccc12 [33-7, 7-hydroxy-3-phenoxy-2-(trifluoromethyl)-4H-chromen-4-one]
